Test results: patent US20240391875A1, “ISOQUINOLINONES AND QUINOLINONES AS MODULATORS OF POLRMT” (Pretzel Therapeutics, Inc., priority 2021, published 2024)

Target: POLRMT (Homo sapiens, UniProt O00411)
Assay: homogeneous TR-FRET assay of mitochondrial transcription (inhibition of POLRMT)
Type: biochemical
Conditions: isoquinolinone compounds (Table 1)
Outline: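 Recombinant POLRMT (7.5 nM) with TFB2M, TFAM and linearized LSP plasmid template, 500 μM NTPs, pH 7.5 Mg buffer; 60 min at 37° C. Reaction stopped with EDTA/high-salt buffer, 407 bp RNA transcript detected by hybridized ATTO647/Europium-cryptate probe pair; TR-FRET 665/620 nm ratio taken as transcript yield.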

Sequence of POLRMT (O00411 42-1230): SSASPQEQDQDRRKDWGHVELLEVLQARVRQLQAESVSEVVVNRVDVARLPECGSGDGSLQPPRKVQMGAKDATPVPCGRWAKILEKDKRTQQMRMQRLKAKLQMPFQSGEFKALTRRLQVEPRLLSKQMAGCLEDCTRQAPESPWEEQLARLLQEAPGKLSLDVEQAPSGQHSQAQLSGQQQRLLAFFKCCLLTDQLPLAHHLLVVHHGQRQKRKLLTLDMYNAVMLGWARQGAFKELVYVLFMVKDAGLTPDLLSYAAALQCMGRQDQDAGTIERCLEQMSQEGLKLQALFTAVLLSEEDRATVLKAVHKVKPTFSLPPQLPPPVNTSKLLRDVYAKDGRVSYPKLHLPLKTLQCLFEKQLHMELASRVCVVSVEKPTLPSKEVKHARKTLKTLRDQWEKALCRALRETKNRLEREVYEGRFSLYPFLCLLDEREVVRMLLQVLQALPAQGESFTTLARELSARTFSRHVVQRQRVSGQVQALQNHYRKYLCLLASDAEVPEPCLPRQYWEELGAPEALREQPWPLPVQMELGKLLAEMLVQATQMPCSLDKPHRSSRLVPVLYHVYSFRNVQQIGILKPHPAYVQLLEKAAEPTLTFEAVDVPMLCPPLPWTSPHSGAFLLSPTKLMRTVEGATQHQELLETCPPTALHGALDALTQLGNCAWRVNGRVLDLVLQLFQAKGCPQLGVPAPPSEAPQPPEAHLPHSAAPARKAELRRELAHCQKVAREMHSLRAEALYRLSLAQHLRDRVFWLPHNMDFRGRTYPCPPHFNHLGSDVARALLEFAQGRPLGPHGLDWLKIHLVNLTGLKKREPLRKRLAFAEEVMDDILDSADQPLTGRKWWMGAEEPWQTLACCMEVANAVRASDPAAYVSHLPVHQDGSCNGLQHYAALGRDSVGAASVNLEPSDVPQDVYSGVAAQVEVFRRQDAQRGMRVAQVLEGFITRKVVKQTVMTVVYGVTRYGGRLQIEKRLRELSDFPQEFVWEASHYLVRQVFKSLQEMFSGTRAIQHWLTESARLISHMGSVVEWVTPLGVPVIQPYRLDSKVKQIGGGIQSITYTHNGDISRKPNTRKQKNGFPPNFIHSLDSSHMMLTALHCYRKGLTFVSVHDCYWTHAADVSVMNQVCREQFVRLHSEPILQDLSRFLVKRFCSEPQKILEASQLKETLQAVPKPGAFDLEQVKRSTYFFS

| Compound | IC50 [nM] |
| --- | --- |
| C[C@@H](Oc1ccc2c(-c3ccc(F)cc3Cl)c[nH]c(=O)c2c1)C(=O)N1CCC[C@H](C(N)=O)C1 [Example 82, (S)-1-((R)-2-((4-(2-chloro-4-fluorophenyl)-1-oxo-1,2-dihydroisoquinolin-7-yl)oxy)propanoyl)piperidine-3-carboxamide] | 90 |
| Cc1sccc1-c1c[nH]c(=O)c2cc(OCC(N)=O)ccc12 [Example 134, 2-((4-(2-methylthiophen-3-yl)-1-oxo-1,2-dihydroisoquinolin-7-yl)oxy)acetamide] | 21000 |
| COCC(Oc1ccc2c(-c3ccccc3C)c[nH]c(=O)c2c1)C(=O)N(C)C (single isomer, unassigned) [Example 54] | > 100000 |
| CC(C#N)Oc1ccc2c(-c3ccc(F)cc3Cl)c[nH]c(=O)c2c1 (single isomer, unassigned) [Example 50, 2-((4-(2-chloro-4-fluorophenyl)-1-oxo-1,2-dihydroisoquinolin-7-yl)oxy)propanenitrile] | 600 |
| C[C@@H](Oc1ccc2c(-c3ccc(F)cc3Cl)c[nH]c(=O)c2c1)C(=O)N1CCN(S(C)(=O)=O)CC1 [Example 130, (R)-4-(2-chloro-4-fluorophenyl)-7-((1-(4-(methylsulfonyl)piperazin-1-yl)-1-oxopropan-2-yl)oxy)isoquinolin-1(2H)-one] | 2000 |
| COCC(C#N)Oc1ccc2c(-c3ccccc3C)c[nH]c(=O)c2c1 (single isomer, unassigned) [Example 76, 3-methoxy-2-((1-oxo-4-(o-tolyl)-1,2-dihydroisoquinolin-7-yl)oxy)propanenitrile] | 200 |
| Cc1cccc(C)c1-c1c[nH]c(=O)c2cc(OCC#N)ccc12 [Example 99, 2-((4-(2,6-dimethylphenyl)-1-oxo-1,2-dihydroisoquinolin-7-yl)oxy)acetonitrile] | 20 |
| COCc1ccc2c(-c3ccccc3C)c[nH]c(=O)c2c1 [Example 44, 7-(methoxymethyl)-4-(o-tolyl)isoquinolin-1(2H)-one] | 2000 |
| COCC(C)Oc1ccc2c(-c3ccccc3C)c[nH]c(=O)c2c1 (single isomer, unassigned) [Example 26, 7-((1-methoxypropan-2-yl)oxy)-4-(o-tolyl)isoquinolin-1(2H)-one] | 1000 |
| COCC(Oc1ccc2c(-c3ccccc3C)c[nH]c(=O)c2c1)C(=O)N(C)C (single isomer, unassigned) [Example 55, 3-methoxy-N,N-dimethyl-2-((1-oxo-4-(o-tolyl)-1,2-dihydroisoquinolin-7-yl)oxy)propenamide] | 2000 |
| Cc1ccccc1-c1c[nH]c(=O)c2cc(NC(C)C(=O)N3CCOCC3)ccc12 (centres unmarked) [Example 46] | 2000 |
| Cc1c(F)cccc1-c1c[nH]c(=O)c2cc(OCC(N)=O)ccc12 [Example 136, 2-((4-(3-fluoro-2-methylphenyl)-1-oxo-1,2-dihydroisoquinolin-7-yl)oxy)acetamide] | 3000 |
| C[C@@H](Oc1ccc2c(-c3ccc(F)cc3Cl)c[nH]c(=O)c2c1)C(=O)N1CCO[C@@H](C(=O)O)C1 [Example 120, (R)-4-((R)-2-((4-(2-chloro-4-fluorophenyl)-1-oxo-1,2-dihydroisoquinolin-7-yl)oxy)propanoyl)morpholine-2-carboxylic acid] | 300 |

Same assay, conditions: quinolinone compounds (Table 2)

| Compound | IC50 [nM] |
| --- | --- |
| COc1ccc2c(-c3ccccc3)cc(=O)[nH]c2c1 [Example Q9, 7-methoxy-4-phenylquinolin-2(1H)-one] | > 100000 |
